Test results taken from PMC9694334, “Synthesis and Biological Evaluation of a Fused Structure of Indolizine and Pyrrolo[1,2-c]pyrimidine: Identification of Its Potent Anticancer Activity against Liver Cancer Cells” (Pharmaceuticals, 2022).

Columns and labels:
Assay type in all cases: cell-based
HepG2 cells = experiment: Cell viability assay (MTS) in HepG2 cells; settings: 10 μM, mean, n = 3
Procedure: (§1) HepG2, Huh7, H1299, HT29, AGS and A549 cells were purchased from the Korean Cell Line Bank (Seoul, Korea) and HaCaT cells were obtained from Prof. Sohee Kwon (Yonsei University, Korea). Liver cancer cells (HepG2), human keratinocyte cells (HaCaT), and lung cancer cells (A549) were grown in DMEM high-glucose medium, liver cancer cells (Huh7) and non-small cell lung cancer cells (H1299) were grown in RPMI 1640, and gastric cancer cells (AGS) were grown in Coon’s modified F12 medium. All media were supplemented with 10% FBS, 100 Units/mL penicillin, and 100 μg/mL streptomycin. All cells were incubated at 37 °C, 5% CO2 and 95% humidity.
(§2) Cell viability assay was conducted using Cell Titer 96® AQueous One Solution Cell proliferation Assay kit (Promega, Madison, WI, USA). Five cancer cells and HaCaT cells were plated in 96-well microplates with growth medium for 24 h. When cell confluency reached ~30%, cells were treated with DMSO (vehicle) and test compounds. The medium and test compounds were replaced every 24 h. To measure cell viability, the cells were incubated with MTS solution for 1 h. The absorbance was measured by using Infinite M200 microplate reader (Tecan, Männedorf, Switzerland) at 490 nm.
(§3) Figure 2 Effect of 5r on cell viability in HepG2, Huh7, AGS, H1299, A549, HaCaT, NIH3T3, and HEK293T cells. (A–H) HepG2, Huh7, AGS, H1299, A549, HaCaT, NIH3T3, and HEK293T cells were cultured with 5r at the indicated concentrations for 72 h, and medium was replaced every 24 h with freshly added 5r. Cell viability was measured by MTS analysis (mean ± S.D., n = 5). * p < 0.05, ** p < 0.01, *** p < 0.001.

HT29 cells = experiment: Cell viability assay (MTS) in HT29 cells; settings: mean, n = 3
Procedure: as §1, §2

H1299 cells = experiment: Cell viability assay (MTS) in H1299 cells; settings: 10 μM, mean, n = 3
Procedure: as §1, §2, §3

A549 cells = experiment: Cell viability assay (MTS) in A549 cells; settings: 10 μM, mean, n = 3
Procedure: as §1, §2, §3

AGS cells = experiment: Cell viability assay (MTS) in AGS cells; settings: 10 μM, mean, n = 3
Procedure: as §1, §2, §3

N#Cc1c2c3cccn3c(-c3ccccc3)nc2n2ccccc12 [Compound 5a, 5-Phenylpyrrolo[1′,2′:1,6]pyrimido[5,4-b]indolizine-12-carbonitrile]
% Inhibition of Cell Viability at 10 μM HepG2 (HepG2 cells): 85.0% | % Inhibition of Cell Viability at 10 μM HT29 (HT29 cells): <25% | % Inhibition of Cell Viability at 10 μM H1299 (H1299 cells): 81.5% | % Inhibition of Cell Viability at 10 μM A549 (A549 cells): <25% | % Inhibition of Cell Viability at 10 μM AGS (AGS cells): <25%

COc1ccc(-c2nc3c(c(C#N)c4ccccn43)c3cccn23)cc1 [Compound 5b, 5-(4-Methoxyphenyl)pyrrolo[1′,2′:1,6]pyrimido[5,4-b]indolizine-12-carbonitrile]
% Inhibition of Cell Viability at 10 μM HepG2 (HepG2 cells): 57.0% | % Inhibition of Cell Viability at 10 μM HT29 (HT29 cells): <25% | % Inhibition of Cell Viability at 10 μM H1299 (H1299 cells): 79.1% | % Inhibition of Cell Viability at 10 μM A549 (A549 cells): 25.5% | % Inhibition of Cell Viability at 10 μM AGS (AGS cells): <25%

COc1ccc(-c2nc3c(c(C#N)c4ccccn43)c3cccn23)cc1OC [Compound 5c, 5-(3,4-Dimethoxyphenyl)pyrrolo[1′,2′:1,6]pyrimido[5,4-b]indolizine-12-carbonitrile]
% Inhibition of Cell Viability at 10 μM HepG2 (HepG2 cells): 76.7% | % Inhibition of Cell Viability at 10 μM HT29 (HT29 cells): 44.0% | % Inhibition of Cell Viability at 10 μM H1299 (H1299 cells): 94.0% | % Inhibition of Cell Viability at 10 μM A549 (A549 cells): 47.1% | % Inhibition of Cell Viability at 10 μM AGS (AGS cells): 56.0%

COc1cc(OC)cc(-c2nc3c(c(C#N)c4ccccn43)c3cccn23)c1 [Compound 5d, 5-(3,5-Dimethoxyphenyl)pyrrolo[1′,2′:1,6]pyrimido[5,4-b]indolizine-12-carbonitrile]
% Inhibition of Cell Viability at 10 μM HepG2 (HepG2 cells): 57.3% | % Inhibition of Cell Viability at 10 μM HT29 (HT29 cells): <25% | % Inhibition of Cell Viability at 10 μM H1299 (H1299 cells): 83.4% | % Inhibition of Cell Viability at 10 μM A549 (A549 cells): <25% | % Inhibition of Cell Viability at 10 μM AGS (AGS cells): <25%

COc1cc(-c2nc3c(c(C#N)c4ccccn43)c3cccn23)cc(OC)c1OC [Compound 5e, 5-(3,4,5-Trimethoxyphenyl)pyrrolo[1′,2′:1,6]pyrimido[5,4-b]indolizine-12-carbonitrile]
% Inhibition of Cell Viability at 10 μM HepG2 (HepG2 cells): 37.7% | % Inhibition of Cell Viability at 10 μM HT29 (HT29 cells): <25% | % Inhibition of Cell Viability at 10 μM H1299 (H1299 cells): 89.0% | % Inhibition of Cell Viability at 10 μM A549 (A549 cells): 25.3% | % Inhibition of Cell Viability at 10 μM AGS (AGS cells): <25%

N#Cc1c2c3cccn3c(-c3ccc4ccccc4c3)nc2n2ccccc12 [Compound 5f, 5-(Naphthalen-2-yl)pyrrolo[1′,2′:1,6]pyrimido[5,4-b]indolizine-12-carbonitrile]
% Inhibition of Cell Viability at 10 μM HepG2 (HepG2 cells): 92.5% | % Inhibition of Cell Viability at 10 μM HT29 (HT29 cells): <25% | % Inhibition of Cell Viability at 10 μM H1299 (H1299 cells): 88.4% | % Inhibition of Cell Viability at 10 μM A549 (A549 cells): <25% | % Inhibition of Cell Viability at 10 μM AGS (AGS cells): <25%

N#Cc1c2c3cccn3c(-c3cccc4ccccc34)nc2n2ccccc12 [Compound 5g, 5-(Naphthalen-1-yl)pyrrolo[1′,2′:1,6]pyrimido[5,4-b]indolizine-12-carbonitrile]
% Inhibition of Cell Viability at 10 μM HepG2 (HepG2 cells): 49.2% | % Inhibition of Cell Viability at 10 μM HT29 (HT29 cells): <25% | % Inhibition of Cell Viability at 10 μM H1299 (H1299 cells): 82.8% | % Inhibition of Cell Viability at 10 μM A549 (A549 cells): <25% | % Inhibition of Cell Viability at 10 μM AGS (AGS cells): <25%

N#Cc1c2c3cccn3c(-c3ccc(Cl)cc3)nc2n2ccccc12 [Compound 5h, 5-(4-Chlorophenyl)pyrrolo[1′,2′:1,6]pyrimido[5,4-b]indolizine-12-carbonitrile]
% Inhibition of Cell Viability at 10 μM HepG2 (HepG2 cells): 88.4% | % Inhibition of Cell Viability at 10 μM HT29 (HT29 cells): 26.9% | % Inhibition of Cell Viability at 10 μM H1299 (H1299 cells): 80.0% | % Inhibition of Cell Viability at 10 μM A549 (A549 cells): 52.5% | % Inhibition of Cell Viability at 10 μM AGS (AGS cells): 31.0%

N#Cc1c2c3cccn3c(-c3ccc(Br)cc3)nc2n2ccccc12 [Compound 5i, 5-(4-Bromophenyl)pyrrolo[1′,2′:1,6]pyrimido[5,4-b]indolizine-12-carbonitrile]
% Inhibition of Cell Viability at 10 μM HepG2 (HepG2 cells): 87.4% | % Inhibition of Cell Viability at 10 μM HT29 (HT29 cells): <25% | % Inhibition of Cell Viability at 10 μM H1299 (H1299 cells): 92.1% | % Inhibition of Cell Viability at 10 μM A549 (A549 cells): 36.7% | % Inhibition of Cell Viability at 10 μM AGS (AGS cells): <25%
